One block for each compound: values may come before it.
Assays:
[1] = target: E3 ubiquitin-protein ligase XIAP (Homo sapiens, UniProt P98170)
Description: Binding affinity to N-terminal 6xHis-tagged human cloned XIAP BIR3 domain expressed in Escherichia coli BL21 (DE3) by fluorescence polarization-based competitive binding assay

MDA-MB-231 [2] = assay: Induction of apoptosis in human MDA-MB-231 cells assessed as early apoptotic cells at 100 nM after 48 hrs using annexin V-propidium iodide staining by flow cytometry; assay type: functional
MDA-MB-231 [3] = assay: Induction of apoptosis in human MDA-MB-231 cells assessed as early apoptotic cells at 30 nM after 48 hrs using annexin V-propidium iodide staining by flow cytometry; assay type: functional
MDA-MB-231 [4] = assay: Induction of apoptosis in human MDA-MB-231 cells assessed as early apoptotic cells at 1 uM after 48 hrs using annexin V-propidium iodide staining by flow cytometry; assay type: functional
SK-OV-3 = assay: Growth inhibition of human SKOV3 cells after 4 days by WST8 assay; assay type: functional, cell-based; conditions: SK-OV-3, 96 h
MDA-MB-231 [5] = assay: Induction of apoptosis in human MDA-MB-231 cells assessed as late apoptotic cells at 1 uM after 48 hrs using annexin V-propidium iodide staining by flow cytometry; assay type: functional
MDA-MB-231 [6] = assay: Induction of apoptosis in human MDA-MB-231 cells assessed as late apoptotic cells at 100 nM after 48 hrs using annexin V-propidium iodide staining by flow cytometry; assay type: functional
MDA-MB-231 [7] = assay: Induction of apoptosis in human MDA-MB-231 cells assessed as late apoptotic cells at 30 nM after 48 hrs using annexin V-propidium iodide staining by flow cytometry; assay type: functional
MDA-MB-231 [8] = assay: cells; conditions: Homo sapiens, MDA-MB-231, 96 h
Description: Growth inhibition of human MDA-MB-231 cells after 4 days by WST-8 assay

Sequence of E3 ubiquitin-protein ligase XIAP (P98170 whole entry): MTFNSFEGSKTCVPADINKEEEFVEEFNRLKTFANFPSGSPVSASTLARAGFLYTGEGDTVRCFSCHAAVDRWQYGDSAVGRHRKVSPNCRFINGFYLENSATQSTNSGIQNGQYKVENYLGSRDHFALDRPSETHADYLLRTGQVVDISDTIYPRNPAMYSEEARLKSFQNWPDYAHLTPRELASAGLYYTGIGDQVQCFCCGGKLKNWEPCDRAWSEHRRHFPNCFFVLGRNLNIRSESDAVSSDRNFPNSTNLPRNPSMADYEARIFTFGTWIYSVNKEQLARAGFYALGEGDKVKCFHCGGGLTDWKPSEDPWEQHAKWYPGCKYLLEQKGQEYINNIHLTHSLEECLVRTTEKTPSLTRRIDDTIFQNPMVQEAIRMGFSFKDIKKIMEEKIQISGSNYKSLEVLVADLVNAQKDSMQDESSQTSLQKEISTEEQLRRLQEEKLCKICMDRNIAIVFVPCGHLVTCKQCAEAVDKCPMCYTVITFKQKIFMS

SMILES: CC[C@@H](C(=O)N[C@H]1CCCC[C@H]2CC[C@@H](C(=O)NC(c3ccccc3)c3ccccc3)N2C1=O)N1CCOCC1
Ki [1]: 32.9 µM

SMILES: C[C@H](N)C(=O)N[C@H]1CCCC[C@H]2CC[C@@H](C(=O)NCc3ccccc3)N2C1=O
Ki [1]: 0.1 µM

SMILES: CN[C@@H](C)C(=O)N[C@H]1CCCC[C@H]2CC[C@@H](C(=O)NC(c3ccccc3)c3ccccc3)N2C1=O
Activity (MDA-MB-231 [2]): 29% | Activity (MDA-MB-231 [3]): 13% | Activity (MDA-MB-231 [4]): 39% | IC50 (SK-OV-3): 0.9 µM | Activity (MDA-MB-231 [5]): 8% | Activity (MDA-MB-231 [6]): 10% | Activity (MDA-MB-231 [7]): 2%

SMILES: C[C@H](O)C(=O)N[C@H]1CCCC[C@H]2CC[C@@H](C(=O)NC(c3ccccc3)c3ccccc3)N2C1=O
IC50 (SK-OV-3): > 10 µM | Ki [1]: 13 µM | IC50 (MDA-MB-231 [8]): 7 µM

SMILES: CC[C@H](N)C(=O)N[C@H]1CCCC[C@H]2CC[C@@H](C(=O)NC(c3ccccc3)c3ccccc3)N2C1=O
IC50 (SK-OV-3): > 10 µM | Ki [1]: 0.039 µM | IC50 (MDA-MB-231 [8]): 8 µM

Continued, in another order:

Ki [1]: > 100 µM
SMILES: CCC[C@H](N)C(=O)N[C@H]1CC[C@H]2CC[C@@H](C(=O)NCc3ccccc3)N2C1

Ki [1]: 0.06 µM
SMILES: C[C@H](N)C(=O)N[C@H]1CCC[C@H]2CC[C@@H](C(=O)NC(c3ccccc3)c3ccccc3)N2C1=O

IC50 (SK-OV-3): 1 µM | IC50 (MDA-MB-231 [8]): 0.41 µM
SMILES: CC[C@H](NC)C(=O)N[C@H]1CCCC[C@H]2CC[C@@H](C(=O)NC(c3ccccc3)c3ccccc3)N2C1=O
Activity (MDA-MB-231 [2]): 20% | Activity (MDA-MB-231 [3]): 13% | Activity (MDA-MB-231 [4]): 29% | Activity (MDA-MB-231 [5]): 8% | Activity (MDA-MB-231 [6]): 3% | Activity (MDA-MB-231 [7]): 3%

Ki [1]: 29 µM
SMILES: CC[C@H](O)C(=O)N[C@H]1CCC[C@H]2CC[C@@H](C(=O)NC(c3ccccc3)c3ccccc3)N2C1=O

Ki [1]: 0.047 µM
SMILES: CC[C@H](N)C(=O)N[C@H]1CCCC[C@H]2CC[C@@H](C(=O)N[C@@H](c3ccccc3)c3ccc4ccccc4c3)N2C1=O

Ki [1]: 0.759 µM
SMILES: CC[C@H](N)C(=O)N[C@H]1CCCC[C@H]2CC[C@@H](C(=O)N[C@H](c3ccccc3)c3ccc4ccccc4c3)N2C1=O
